Results on ten molecules are retold here after patent US20260356856A1, “KRAS G12S AND G12C INHIBITORS” (MIRATI THERAPEUTICS, INC., priority 2023, published 2026).

For test [1], the target named is T1, KRas-mediated phosphorylation of ERK in H358 cells (Homo sapiens, UniProt P01116, G12C).
T1 construct: pERK HTRF read-out
As to the kind of experiment: Inhibition of KRas-mediated phosphorylation of ERK (HTRF), H358 cells. Type of test: cell-based. The conditions noted are these: HTRF pERK, 3 h incubation. For orientation: In TR-FRET formats the signal depends on donor and acceptor labels being close together.

Test [2] has as its target T2, KRas-mediated phosphorylation of ERK in A549 cells (Homo sapiens, UniProt P01116, G12S).
T2 construct: pERK HTRF read-out
As to the kind of experiment: Inhibition of KRas-mediated phosphorylation of ERK (HTRF), A549 cells. Type of test: cell-based. The conditions noted are these: HTRF pERK, 3 h incubation.

The target in test [3] is T3, KRas-mediated phosphorylation of ERK in MKN1 cells (Homo sapiens, UniProt P01116).
T3 construct: pERK HTRF read-out
As to the kind of experiment: Inhibition of KRas-mediated phosphorylation of ERK (HTRF), MKN1 cells. The conditions noted are these: MKN1 cells (KRas WT); HTRF pERK; 3 h incubation. Type of test: cell-based. The method, then: Inhibition of KRas Phosphorylation of ERK (HTRF) by Exemplary Compounds of Formula (Ia) or (Ib)
Cisbio HTRF Advanced pERK Assay Catalog #64AERPEH • Cells: MKN1, PSN1 • Procedure: • 1. Day 1: Seed 6,000 cells/well −25 μl/well in 384-well white solid bottom plate; RPM1_10% FBS. Incubate overnight at 37 °C/5% CO2. • 2.

In a further test the target is T4, KRas WT (Homo sapiens, UniProt P01116).
T4 construct: Biotinylated KRas (corresponding to amino acids 1-169, produced at Accelegan Inc.); biotin (biotinylated); purchased Accelegan Inc
As to the kind of experiment: KRas binding assay, TR-FRET displacement of Cy5 labelled tracer. The conditions noted are these: 60-minute incubation at room temperature, 1% DMSO, pH 7.5. The essentials: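 Assay buffer was HEPES (50 mM, pH 7.5) with MgCl2 (5 mM), DTT (1 mM) and Tween-20 (0.005%). Biotinylated KRas spanning residues 1-169 met tracer, terbium streptavidin and compound (1% DMSO, final) for 60 minutes at ambient temperature before reading. POC values were fitted for IC50.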

The target in another test is T5, KRas G12C (Homo sapiens, UniProt P01116, G12C).
T5 construct: Biotinylated KRas (corresponding to amino acids 1-169, produced at Accelegan Inc.); biotin (biotinylated); purchased Accelegan Inc
The test is described as above. The conditions noted are these: 60-minute incubation at room temperature, 1% DMSO, pH 7.5. The essentials: (§1)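 KRas aa 1-169, biotinylated; Tb-streptavidin donor; 1% DMSO final. Buffer: HEPES 50 mM (pH 7.5), MgCl2 5 mM, DTT 1 mM, Tween-20 0.005%. 60 min, RT. IC50 from 4-parameter fit of POC.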

Another test deals with T6, KRas G12S (Homo sapiens, UniProt P01116, G12S).
T6 construct: Biotinylated KRas (corresponding to amino acids 1-169, produced at Accelegan Inc.); biotin (biotinylated); purchased Accelegan Inc
The description is as above. The conditions noted are these: 60-minute incubation at room temperature, 1% DMSO, pH 7.5. The essentials:
as §1

T1 sequence (P01116 1-188 isoform P01116-2 G12C): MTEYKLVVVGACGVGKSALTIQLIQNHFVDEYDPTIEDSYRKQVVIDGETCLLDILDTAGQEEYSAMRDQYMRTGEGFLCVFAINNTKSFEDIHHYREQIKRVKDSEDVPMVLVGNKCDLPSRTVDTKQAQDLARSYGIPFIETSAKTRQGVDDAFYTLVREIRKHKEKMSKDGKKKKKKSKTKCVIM
T2 sequence (P01116 1-188 isoform P01116-2 G12S): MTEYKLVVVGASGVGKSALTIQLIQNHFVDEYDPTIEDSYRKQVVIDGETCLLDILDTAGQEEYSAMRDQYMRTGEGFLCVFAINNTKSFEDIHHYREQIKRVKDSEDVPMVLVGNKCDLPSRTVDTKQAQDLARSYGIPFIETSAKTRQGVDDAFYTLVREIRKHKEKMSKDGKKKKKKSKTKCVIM
T6 sequence (P01116 1-169 isoform P01116-2 G12S): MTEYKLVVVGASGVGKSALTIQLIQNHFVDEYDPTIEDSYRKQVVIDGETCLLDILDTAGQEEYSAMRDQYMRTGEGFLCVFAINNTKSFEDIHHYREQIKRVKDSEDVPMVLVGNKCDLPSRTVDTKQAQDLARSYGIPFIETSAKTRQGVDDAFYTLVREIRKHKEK
T3 sequence (P01116 1-188 isoform P01116-2): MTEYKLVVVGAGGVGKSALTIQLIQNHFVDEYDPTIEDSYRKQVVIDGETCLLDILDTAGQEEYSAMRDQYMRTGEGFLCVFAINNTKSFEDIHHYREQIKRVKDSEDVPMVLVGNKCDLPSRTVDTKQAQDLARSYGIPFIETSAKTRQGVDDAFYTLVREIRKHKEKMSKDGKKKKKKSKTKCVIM
T5 sequence (P01116 1-169 isoform P01116-2 G12C): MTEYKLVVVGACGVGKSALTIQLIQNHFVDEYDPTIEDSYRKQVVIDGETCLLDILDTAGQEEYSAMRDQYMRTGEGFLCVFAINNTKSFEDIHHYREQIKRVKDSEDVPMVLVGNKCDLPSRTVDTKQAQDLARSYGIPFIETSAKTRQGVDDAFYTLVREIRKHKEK
T4 sequence (P01116 1-169 isoform P01116-2): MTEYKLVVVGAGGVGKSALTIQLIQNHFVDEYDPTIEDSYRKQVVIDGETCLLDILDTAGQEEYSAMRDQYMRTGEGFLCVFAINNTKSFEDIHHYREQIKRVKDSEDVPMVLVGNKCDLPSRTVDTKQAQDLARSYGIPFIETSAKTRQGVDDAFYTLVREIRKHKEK

With `N#Cc1c(N)sc2c(F)ccc(-c3c(Cl)cc4c(N5CCC(C(=O)Oc6ccccc6F)CC5)nc(OC[C@@]56CCCN5C[C@H](F)C6)nc4c3F)c12` [Example 288, 2-fluorophenyl 1-(7-(2-amino-3-cyano-7-fluorobenzo[b]thiophen-4-yl)-6-chloro-8-fluoro-2-(((2R,7aS)-2-fluorotetrahydro-1H-pyrrolizin-7a(5H)-yl)methoxy)quinazolin-4-yl)piperidine-4-carboxylate], the IC50 (in general, the point on the concentration scale where inhibition reaches its midpoint) in test [1] was found to be 24 nM; in test [2], 77 nM; in test [3] it was 246 nM; at KRas WT, 143 nM; at KRas G12C, 9 nM; on KRas G12S it was 20 nM.
As to `CN(C(=O)C1CCN(c2nc(OC[C@@]34CCCN3C[C@H](F)C4)nc3c(F)c(-c4ccc(F)c5sc(N)c(C#N)c45)c(Cl)cc23)CC1)c1cccnc1` [Example 289, 1-(7-(2-amino-3-cyano-7-fluorobenzo[b]thiophen-4-yl)-6-chloro-8-fluoro-2-(((2R,7aS)-2-fluorotetrahydro-1H-pyrrolizin-7a(5H)-yl)methoxy)quinazolin-4-yl)-N-methyl-N-(pyridin-3-yl)piperidine-4-carboxamide], the IC50 in test [1] is 81 nM; in test [2], 271 nM; in test [3], 33 nM; at KRas WT, 5 nM; on KRas G12C, 10 nM; on KRas G12S, 18 nM.
As to `CN(C(=O)C1CCN(c2nc(OC[C@@]34CCCN3C[C@H](F)C4)nc3c(F)c(-c4ccc(F)c5sc(N)c(C#N)c45)c(Cl)cc23)CC1)c1ccncn1` [Example 290, 1-(7-(2-amino-3-cyano-7-fluorobenzo[b]thiophen-4-yl)-6-chloro-8-fluoro-2-(((2R,7aS)-2-fluorotetrahydro-1H-pyrrolizin-7a(5H)-yl)methoxy)quinazolin-4-yl)-N-methyl-N-(pyrimidin-4-yl)piperidine-4-carboxamide], the IC50 in test [1] is 29 nM; in test [2], 142 nM; in test [3], 18 nM; at KRas WT it was 10 nM; at KRas G12C it was 9 nM; at KRas G12S, 13 nM.
As to `CCN(C(C)=O)C(=O)CCCN(C)c1nc(OC[C@@]23CCCN2C[C@H](F)C3)nc2c(F)c(-c3ccc(F)c4sc(N)c(C#N)c34)c(Cl)cc12` [Example 291, N-acetyl-4-((7-(2-amino-3-cyano-7-fluorobenzo[b]thiophen-4-yl)-6-chloro-8-fluoro-2-(((2R,7aS)-2-fluorotetrahydro-1H-pyrrolizin-7a(5H)-yl)methoxy)quinazolin-4-yl)(methyl)amino)-N-ethylbutanamide], the IC50 in test [1] is 81 nM; in test [2], 65 nM; in test [3], 134 nM; on KRas WT, 12 nM; on KRas G12C it was 6 nM; on KRas G12S it was 7 nM.
Regarding `CN(C(=O)CCCN(C)c1nc(OC[C@@]23CCCN2C[C@H](F)C3)nc2c(F)c(-c3ccc(F)c4sc(N)c(C#N)c34)c(Cl)cc12)C(=O)c1ccn(C)n1` [Example 292, N-(4-((7-(2-amino-3-cyano-7-fluorobenzo[b]thiophen-4-yl)-6-chloro-8-fluoro-2-(((2R,7aS)-2-fluorotetrahydro-1H-pyrrolizin-7a(5H)-yl)methoxy)quinazolin-4-yl)(methyl)amino)butanoyl)-N, 1-dimethyl-1H-pyrazole-3-carboxamide], the IC50 came out at 30 nM in test [1]; 27 nM in test [2]; 80 nM in test [3]; 11 nM on KRas WT; 3 nM on KRas G12C; 5 nM at KRas G12S.
On to `CCc1c(F)ccc2cc(O)cc(-c3ncc4c(N5CCC(C(=O)n6cc(OC)cn6)CC5)nc(OC[C@@]56CCCN5C[C@H](F)C6)nc4c3F)c12` [Example 294, (1-(7-(8-ethyl-7-fluoro-3-hydroxynaphthalen-1-yl)-8-fluoro-2-(((2R,7aS)-2-fluorotetrahydro-1H-pyrrolizin-7a(5H)-yl)methoxy)pyrido[4,3-d]pyrimidin-4-yl)piperidin-4-yl)(4-methoxy-1H-pyrazol-1-yl)methanone], for which the IC50 in test [1] was 4490 nM; in test [2], 74 nM; in test [3], 3870 nM; on KRas WT it was 130 nM; at KRas G12C, 61 nM; on KRas G12S, 22 nM.
Take `N#Cc1c(N)sc2c(F)ccc(-c3c(C(F)(F)F)cc4c(N5CCC(C(=O)Oc6ccccc6)CC5)nc(OC[C@@]56CCCN5C[C@H](F)C6)nc4c3F)c12` [Example 295, phenyl 1-(7-(2-amino-3-cyano-7-fluorobenzo[b]thiophen-4-yl)-8-fluoro-2-(((2R,7aS)-2-fluorotetrahydro-1H-pyrrolizin-7a(5H)-yl)methoxy)-6-(trifluoromethyl)quinazolin-4-yl)piperidine-4-carboxylate]: the IC50 in test [1] worked out at 5 nM; in test [2], 14 nM; in test [3], 56 nM; at KRas WT, 44 nM; at KRas G12C, 11 nM; on KRas G12S, 12 nM.
On to `N#Cc1c(N)sc2c(F)ccc(-c3c(Cl)cc4c(N5CCC(C(=O)Oc6cccnc6)CC5)nc(OC[C@@]56CCCN5C[C@H](F)C6)nc4c3F)c12` [Example 296, pyridin-3-yl 1-(7-(2-amino-3-cyano-7-fluorobenzo[b]thiophen-4-yl)-6-chloro-8-fluoro-2-(((2R,7aS)-2-fluorotetrahydro-1H-pyrrolizin-7a(5H)-yl)methoxy)quinazolin-4-yl)piperidine-4-carboxylate], for which the IC50 in test [1] is 15 nM; in test [2] it was 16 nM; in test [3], 318 nM; on KRas WT, 30 nM; on KRas G12C, 3 nM; on KRas G12S, 3 nM.
With `N#Cc1c(N)sc2c(F)ccc(-c3c(Cl)cc4c(N5CCC(C(=O)Oc6cccc(Cl)c6)CC5)nc(OC[C@@]56CCCN5C[C@H](F)C6)nc4c3F)c12` [Example 297, 3-chlorophenyl 1-(7-(2-amino-3-cyano-7-fluorobenzo[b]thiophen-4-yl)-6-chloro-8-fluoro-2-(((2R,7aS)-2-fluorotetrahydro-1H-pyrrolizin-7a(5H)-yl)methoxy)quinazolin-4-yl)piperidine-4-carboxylate], the IC50 in test [1] came to 32 nM; in test [2] it was 101 nM; in test [3] it was 299 nM; at KRas WT it was 99 nM; at KRas G12C it was 23 nM; at KRas G12S, 45 nM.
For `N#Cc1c(N)sc2c(F)ccc(-c3c(Cl)cc4c(N5CCC(C(=O)Oc6ccccc6Cl)CC5)nc(OC[C@@]56CCCN5C[C@H](F)C6)nc4c3F)c12` [Example 298, 2-chlorophenyl 1-(7-(2-amino-3-cyano-7-fluorobenzo[b]thiophen-4-yl)-6-chloro-8-fluoro-2-(((2R,7aS)-2-fluorotetrahydro-1H-pyrrolizin-7a(5H)-yl)methoxy)quinazolin-4-yl)piperidine-4-carboxylate], the IC50 in test [1] is 16 nM; in test [2] it was 169 nM; in test [3], 217 nM; at KRas WT, 154 nM; at KRas G12C, 17 nM; on KRas G12S it was 80 nM.
